Drawing on patent EP0536424A1, “NOVEL BENZOPYRAN DERIVATIVE” (Japan Tobacco Inc., priority 1991, dated 1992), this text covers IC50, ED 50 and Durationng for five compounds.

Molecules are shown by their SMILES. Like-named read-outs stand apart in the source and are kept apart here.

Test [1] deals with aorta thoracica of a male Wister rat. The experiment in a line: Blood vessel relaxing action (relaxation of phenylephrine-contracted, endothelium-denuded spiral strip). As to conditions: concentration inhibiting 50% of the contraction achieved by phenylephrine (10⁻⁶ M), compound 10⁻⁸ to 10⁻⁵ M added cumulatively, 37°C, read-out: IC₅₀. Here is the method: Preparation of the extracted blood vessel sample and the experiment were conducted by the methods of Toda et al. described in J. Cardiovasc. Pharmacol., 7,1118 (1985). The aorta thoracica of a male Wister rat was used as a sample. To be more specific, a spiral piece was prepared by peeling endothelium about 1 cm long from the artery to provide the sample. The endothelium was peeled off by rubbing with a swab. A Krebs-Hensterite solution of 37°C saturated with 95% O₂ and 5% CO₂ was used as a nutrient solution. After application of 1g as suspending load to the sample, changes in tension were measured by rectigraph via an isometric transducer. After the aorta thoracica was contracted by phenylephrine (10⁻⁶ M), a compound to be examined (an example compound) of 10⁻⁸ to 10⁻⁵ M was cumulatively added to determine the relaxing action of the compound quantitatively. The relaxing effect of the example compound was determined in terms of the concentration IC₅₀ of the compound required for inhibiting 50% of the contraction achieved by phenylephrine (10⁻⁶ M). Lema Kalin was used as reference compound A. On the other hand, reference compound B was provided by N'-cyano-N-(trans-6-cyano-3,4-dihydro-2,2-dimethyl-3-hydroxy-2H-1-benzopyran-4-yl)-benzamidine. […]

Another test has as its system coronary blood flow rate. In words: Action on the coronary blood flow rate in dog (anesthetized, left coronary artery perfused with femoral arterial blood). The test is classed as in vivo. As to conditions: administered into the coronary artery; for ED 50: dose increasing coronary blood flow rate by 50% of the reaction caused by niphedipine 1 µg (set at 100%); for Durationng: time during which the compound produced at least 50% of its efficacy at the ED₅₀ dosage. As to the method: Dogs with ether sex were anesthetized with pentobarbital (30 mg/kg,intravenous administration), followed by intravenous heparin administration (500 U/kg) to the dogs under artificial respiration. Then, according to Yago's method described in Folia pharmacol. japon., 57,380 (1961), the left coronary artery was perfused with the right femoral arterial blood so as to measure the blood perfusion amount with an electromagnetic blood flow meter. The example compound was administered into the coronary artery by using a micro syringe just before a stainless steel cannula inserted into the coronary artery. The increase in the coronary blood flow rate caused by the example compound was determined by standardizing the reactivity among the specimen subject, with the reaction caused by the niphedipine administration (1 µg) into the coronary artery of the specimen subject being set at 100%. To be more specific, the intensity of the action due to the example compound was determined in terms of ED₅₀ required for increasing the coronary blood flow rate by 50% on the basis of the reaction caused by niphedipine administered into the coronary artery in an amount of 1 µg. Further, the duration of the effect produced by the example compound was determined in terms of the time (minutes) during which the compound produced at least 50% of efficacy on the basis that the efficacy of the compound in the ED₅₀ dosage noted above was set at 100%. […]

For the compound `CC1(C)Oc2ccc(C#N)cc2[C@@H](NC(=NC#N)c2cccnc2)[C@@H]1O` (relative stereo) [Example 3, N'-cyano-N-(trans-6-cyano-3,4-dihydro-2,2-dimethyl-3-hydroxy-2H-1benzopyran-4-yl]-3-pyridinecarboxamidine], the IC50 in test [1] (Rattus norvegicus) worked out at 0.6 µM. In the test on coronary blood flow rate, this compound returned an ED 50 of 1.9 µg and a Durationng of 4.0 minuted.
For `CC1(C)Oc2ccc(C#N)cc2[C@@H](NC(=N[N+](=O)[O-])c2ccccn2)[C@@H]1O` (relative stereo) [Example 14, N-(trans-6-cyano-3,4-dihydro-2,2-dimethyl-3-hydroxy-2H-1-benzopyran-4yl)-N'-nitro-2-pyridinecarboxamidine], in test [1] (Rattus norvegicus), the IC50 is 1 µM.
In the case of `CC1(C)Oc2ccc(C#N)cc2[C@@H](NC(=NC#N)c2ccc(F)cc2)[C@@H]1O` (relative stereo) [Example 16, N'-cyano-N-(trans-6-cyano-3,4-dihydro-2,2-dimethyl-3-hydroxy-2H-1-benzopyran-4-yl)-4-fluorobenzamidine], the IC50 in test [1] (Rattus norvegicus) stood at 0.06 µM. For the same compound, in the test with coronary blood flow rate, the ED 50 was found to be 1.5 µg and the Durationng worked out at 2.5 minuted.
Regarding `CC1(C)Oc2ccc(C#N)cc2[C@@H](NC(=NC#N)c2ccccc2)[C@@H]1O` (relative stereo) [Reference Compound B, N'-cyano-N-(trans-6-cyano-3,4-dihydro-2,2-dimethyl-3-hydroxy-2H-1-benzopyran-4-yl)-benzamidine, reference compound], the IC50 in test [1] (Rattus norvegicus) is 1 µM. In the test with coronary blood flow rate, this compound returned an ED 50 of 4.2 µg and a Durationng of 1.9 minuted.
Turning to `CC1(C)Oc2ccc(C#N)cc2[C@@H](N2CCCC2=O)[C@@H]1O` [Reference Compound A, Lema Kalin, reference compound], the IC50 in test [1] worked out at 0.4 µM. Further, in the test with coronary blood flow rate, the ED 50 is 1.1 µg and the Durationng was found to be 2.5 minuted.
